In one experiment the target is T1, SHV-5 (Klebsiella pneumoniae, UniProt P0A3M1).
T1 construct: made in house; host or cells: E. coli BL21(DE3)
Put plainly: β-lactamase enzyme inhibition assay, SHV-5 (cefotaxime substrate). It is filed as biochemical. The gist of the method: (§1)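 Native untagged enzymes expressed in E. coli BL21(DE3), purified by cation exchange and gel filtration. Inhibitor preincubated with enzyme 15 min at 37 °C; hydrolysis followed by absorbance: imipenem at 300 nm for KPC-2, cefotaxime at 260 nm for SHV-5. IC50 as concentration halving initial hydrolysis rate versus inhibitor-free wells.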

Another experiment deals with T2, KPC-2 (Klebsiella pneumoniae, UniProt Q9F663).
T2 construct: made in house; host or cells: E. coli BL21(DE3)
T2 sequence (Q9F663 25-293, looked up): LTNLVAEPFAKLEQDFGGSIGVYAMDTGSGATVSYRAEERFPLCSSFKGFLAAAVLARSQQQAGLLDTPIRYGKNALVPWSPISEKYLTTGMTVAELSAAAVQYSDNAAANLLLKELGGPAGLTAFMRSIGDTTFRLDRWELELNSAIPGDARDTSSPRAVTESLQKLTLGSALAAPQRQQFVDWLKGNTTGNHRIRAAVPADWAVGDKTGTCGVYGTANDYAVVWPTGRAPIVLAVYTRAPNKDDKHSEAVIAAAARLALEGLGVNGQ
Put plainly: β-lactamase enzyme inhibition assay, KPC-2 (imipenem substrate). Particulars: Class A; imipenem substrate, 300 nm; read-out: KPC-2. The format is biochemical. An outline of the steps:
as §1

A further experiment addresses T3, VIM-2 (Escherichia coli, UniProt Q5U7L7).
T3 construct: made in house; host or cells: E. coli BL21(DE3)
Put plainly: β-lactamase enzyme inhibition assay, VIM-2 (nitrocefin substrate). The format is biochemical. Particulars: Class B; nitrocefin substrate, 486 nm; read-out: VIM-2. The gist of the method:
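Purified VIM-2 preincubated with inhibitor for 15 min at 37° C, then nitrocefin (100 μM final) added and absorbance at 486 nm followed for 10 min. Maximum hydrolysis rates compared with inhibitor-free controls; IC50 fitted from percent inhibition across inhibitor concentrations.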

A further experiment deals with T4, AmpC (Enterobacter cloacae, UniProt P05364).
T4 construct: made in house; host or cells: E. coli BL21(DE3)
T4 sequence (P05364 21-381): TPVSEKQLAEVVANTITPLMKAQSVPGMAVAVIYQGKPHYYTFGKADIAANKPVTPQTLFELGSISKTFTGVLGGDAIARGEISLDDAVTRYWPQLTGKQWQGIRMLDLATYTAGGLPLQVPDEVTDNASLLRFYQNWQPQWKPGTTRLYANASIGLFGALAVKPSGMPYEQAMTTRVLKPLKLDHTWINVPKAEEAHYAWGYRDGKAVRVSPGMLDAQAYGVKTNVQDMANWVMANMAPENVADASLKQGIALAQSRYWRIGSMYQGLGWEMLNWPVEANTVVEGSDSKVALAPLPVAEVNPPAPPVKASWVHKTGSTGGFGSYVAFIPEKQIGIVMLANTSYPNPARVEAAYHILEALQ
Put plainly: β-lactamase enzyme inhibition assay, p99 AmpC (nitrocefin substrate). The format is biochemical. An outline of the steps:
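Native untagged enzymes expressed in E. coli BL21(DE3), purified by cation exchange and gel filtration. Inhibitor preincubated with enzyme 15 min at 37 °C; hydrolysis followed by absorbance. IC50 as concentration halving initial hydrolysis rate versus inhibitor-free wells.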

Another experiment addresses OXA-48 (UniProt Q6XEC0). Put plainly: β-lactamase enzyme inhibition assay, Class D oxacillinase. It is filed as biochemical. The note with it: read-out: OXA-48.
The subject of experiment [1] is E. coli expressing the Class A Extended Spectrum Beta-Lactamase (ESBL) CTX-M-15. The experiment in a line: Broth microdilution MIC assay with ceftazidime, E. coli CTX-M-15. The format is cell-based. The note with it: Fixed CAZ (ceftazidime) 4 μg/mL; E. coli ESBL4 CTX-M-15. The gist of the method: (§2)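 Test compounds in 2-fold dilutions (16 to 0.125 μg/mL final) in CAMHB were combined with a β-lactam at a static 4 μg/ml final. Plates were inoculated per CLSI broth microdilution with the β-lactamase-producing strain (pre-grown 3-5 h) and incubated 16-20 h at 37° C. MIC of test compound was read visually.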
(In general: In broth dilution the organism is exposed to a series of concentrations in liquid medium.)

Experiment [2] has as its system E. cloacae expressing the Class C P99. The experiment in a line: Broth microdilution MIC assay with ceftazidime, E. cloacae P99. It is filed as cell-based. Particulars: Fixed CAZ (ceftazidime) 4 μg/mL; E. cl. 144200 p99 AmpC. An outline of the steps:
as §2

In experiment [3] the test system is K. pneumoniae expressing the Class A carbapenemase KPC-2. Put plainly: Broth microdilution MIC assay with meropenem, K. pneumoniae KPC-2. The format is cell-based. The note with it: Fixed Mero (meropenem) 4 μg/mL; K. p. 156319 KPC-3. The gist of the method:
as §2

For experiment [4], the system named is P. aeruginosa expressing the Class B carbapenemase VIM-2. Put plainly: Broth microdilution MIC assay with meropenem, P. aeruginosa VIM-2. The note with it: Fixed Mero (meropenem) 4 μg/mL; P. aerug. 2775 VIM-2. The format is cell-based. An outline of the steps: as §2
Experiment [5] has as its system K. pneumoniae expressing the class A carbapenemase KPC-2 and the class B carbapenemase VIM-4. The experiment in a line: Broth microdilution MIC assay with meropenem, K. pneumoniae KPC-2 and VIM-4. It is filed as cell-based. Particulars: Fixed Mero (meropenem) 4 μg/mL; K. p. A-1797 KPC-2 VIM-4. The gist of the method:
as §2

Experiment [6] concerns K. pneumoniae producing the Class D carbapenemase OXA-48. The experiment in a line: Broth microdilution MIC assay with meropenem, K. pneumoniae OXA-48. It is filed as cell-based. The note with it: Fixed Mero (meropenem) 4 μg/mL; K. p. 11978 OXA-48. The gist of the method: as §2

T1 sequence (P0A3M1 22-286): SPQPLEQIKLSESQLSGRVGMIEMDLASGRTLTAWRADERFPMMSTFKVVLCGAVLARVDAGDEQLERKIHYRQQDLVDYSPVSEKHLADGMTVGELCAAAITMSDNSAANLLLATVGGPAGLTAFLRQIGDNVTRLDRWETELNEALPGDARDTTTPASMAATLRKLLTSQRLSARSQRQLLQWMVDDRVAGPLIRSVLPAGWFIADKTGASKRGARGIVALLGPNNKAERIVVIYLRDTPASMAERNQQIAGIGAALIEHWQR

Regarding `NOCC(=O)NCc1cn(CC(=O)N[C@H]2Cc3cccc(C(=O)O)c3OB2O)nn1` [Example 77, (R)-3-(2-(4-((2-(aminooxy)acetamido)methyl)-1H-1,2,3-triazol-1-yl)acetamido)-2-hydroxy-3,4-dihydro-2H-benzo[e][1,2]oxaborinine-8-carboxylic acid], the IC50 on SHV-5 is < 100 nM; at KPC-2, < 100 nM; at VIM-2, 100 to 1000 nM; on AmpC, < 100 nM; at OXA-48 it was 100 to 1000 nM. Further, in experiment [1], the “MIC (μg/mL) of Exemplary Compounds in presence of fixed β-lactams: E. coli ESBL4 CTX-M-15” value (“MIC (μg/mL) … E. coli ESBL4 CTX-M-15” below) was “C (C represents an MIC of <1 μg/mL)”. For the same compound, the “MIC (μg/mL) of Exemplary Compounds in presence of fixed β-lactams: E. cl. 144200 p99 AmpC” value (from here on “MIC (μg/mL) … E. cl. 144200 p99 AmpC”) in [2] was “C (C represents an MIC of <1 μg/mL)”. For the same compound, the “MIC (μg/mL) of Exemplary Compounds in presence of fixed β-lactams: K. p. 156319 KPC-3” value (shortened to “MIC (μg/mL) … K. p. 156319 KPC-3”) in experiment [3] was “C (C represents an MIC of <1 μg/mL)”. The “MIC (μg/mL) of Exemplary Compounds in presence of fixed β-lactams: P. aerug. 2775 VIM-2” value (“MIC (μg/mL) … P. aerug. 2775 VIM-2” below) in experiment [4] is given as “C (C represents an MIC of <1 μg/mL)”. Besides, the “MIC (μg/mL) of Exemplary Compounds in presence of fixed β-lactams: K. p. A-1797 KPC-2 VIM-4” value (“MIC (μg/mL) … K. p. A-1797 KPC-2 VIM-4” below) in experiment [5] was “B (B represents an MIC between 1 and 16 μg/mL inclusive)”. The “MIC (μg/mL) of Exemplary Compounds in presence of fixed β-lactams: K. p. 11978 OXA-48” value (“MIC (μg/mL) … K. p. 11978 OXA-48” below) in [6] was “B (B represents an MIC between 1 and 16 μg/mL inclusive)”.
For the compound `O=C(Cc1cn2ccsc2n1)N[C@H]1Cc2cccc(C(=O)O)c2OB1O` [Example 78, (R)-2-hydroxy-3-(2-(imidazo[2,1-b]thiazol-6-yl)acetamido)-3,4-dihydro-2H-benzo[e][1,2]oxaborinine-8-carboxylic acid], the IC50 against SHV-5 was < 100 nM; on KPC-2, < 100 nM; at VIM-2, 100 to 1000 nM; on AmpC, < 100 nM; on OXA-48 it was < 100 nM. In addition, the “MIC (μg/mL) … E. coli ESBL4 CTX-M-15” value in [1] is “C (C represents an MIC of <1 μg/mL)”. In experiment [2], the “MIC (μg/mL) … E. cl. 144200 p99 AmpC” value is given as “C (C represents an MIC of <1 μg/mL)”. The “MIC (μg/mL) … K. p. 156319 KPC-3” value in experiment [3] is “B (B represents an MIC between 1 and 16 μg/mL inclusive)”. Also, the “MIC (μg/mL) … P. aerug. 2775 VIM-2” value in experiment [4] was “B (B represents an MIC between 1 and 16 μg/mL inclusive)”. For the same compound, the “MIC (μg/mL) … K. p. A-1797 KPC-2 VIM-4” value in experiment [5] is given as “A (A represents an MIC>16 μg/mL)”. Besides, the “MIC (μg/mL) … K. p. 11978 OXA-48” value in [6] was “B (B represents an MIC between 1 and 16 μg/mL inclusive)”.
On to `CNC(=O)c1cn(CC(=O)N[C@H]2Cc3cccc(C(=O)O)c3OB2O)nn1` [Example 79, (R)-2-hydroxy-3-(2-(4-(methylcarbamoyl)-1H-1,2,3-triazol-1-yl)acetamido)-3,4-dihydro-2H-benzo[e][1,2]oxaborinine-8-carboxylic acid], for which the IC50 against SHV-5 is < 100 nM; at KPC-2, < 100 nM; at VIM-2 it was 100 to 1000 nM; on AmpC, < 100 nM; on OXA-48, 100 to 1000 nM. In addition, the “MIC (μg/mL) … E. coli ESBL4 CTX-M-15” value in [1] is recorded as “C (C represents an MIC of <1 μg/mL)”. Besides, in experiment [2], the “MIC (μg/mL) … E. cl. 144200 p99 AmpC” value was “C (C represents an MIC of <1 μg/mL)”. In addition, the “MIC (μg/mL) … K. p. 156319 KPC-3” value in [3] is recorded as “C (C represents an MIC of <1 μg/mL)”. Also, the “MIC (μg/mL) … P. aerug. 2775 VIM-2” value in experiment [4] is recorded as “C (C represents an MIC of <1 μg/mL)”. Also, the “MIC (μg/mL) … K. p. A-1797 KPC-2 VIM-4” value in [5] was “B (B represents an MIC between 1 and 16 μg/mL inclusive)”. The “MIC (μg/mL) … K. p. 11978 OXA-48” value in experiment [6] is reported as “C (C represents an MIC of <1 μg/mL)”.

The values above are taken from patent US11046716B2, “Beta-lactamase inhibitors” (priority 2015, dated 2021).
